In ChEMBL document CHEMBL1133280, “Discovery and synthesis of a potent sulfonamide ET(B) selective antagonist” (Bioorg Med Chem Lett, 2000) one finds IC50 and Ratio data, which are given here for 24 molecules.

For test [1], the target named is T1, Endothelin receptor type B (Sus scrofa, UniProt P35463).
T1 sequence (P35463 whole entry): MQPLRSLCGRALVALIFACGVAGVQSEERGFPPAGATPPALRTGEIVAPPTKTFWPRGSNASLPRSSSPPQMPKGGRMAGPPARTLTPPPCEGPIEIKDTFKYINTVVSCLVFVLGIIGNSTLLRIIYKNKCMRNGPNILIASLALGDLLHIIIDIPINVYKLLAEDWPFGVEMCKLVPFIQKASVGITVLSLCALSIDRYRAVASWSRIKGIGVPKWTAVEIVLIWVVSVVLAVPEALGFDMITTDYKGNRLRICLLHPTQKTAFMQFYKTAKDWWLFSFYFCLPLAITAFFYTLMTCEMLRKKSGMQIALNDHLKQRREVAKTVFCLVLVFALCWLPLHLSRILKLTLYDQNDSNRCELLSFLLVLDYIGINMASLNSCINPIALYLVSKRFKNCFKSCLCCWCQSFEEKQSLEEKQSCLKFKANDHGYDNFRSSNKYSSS
The test is described as follows: Binding affinity towards displacement of [125 I] ET-3 from COS-7 cells transfected with porcine Endothelin B receptor. In kind it is cell-based.

Test [2] has as its target T2, Endothelin-1 receptor (Rattus norvegicus, UniProt P26684).
T2 sequence (P26684 whole entry): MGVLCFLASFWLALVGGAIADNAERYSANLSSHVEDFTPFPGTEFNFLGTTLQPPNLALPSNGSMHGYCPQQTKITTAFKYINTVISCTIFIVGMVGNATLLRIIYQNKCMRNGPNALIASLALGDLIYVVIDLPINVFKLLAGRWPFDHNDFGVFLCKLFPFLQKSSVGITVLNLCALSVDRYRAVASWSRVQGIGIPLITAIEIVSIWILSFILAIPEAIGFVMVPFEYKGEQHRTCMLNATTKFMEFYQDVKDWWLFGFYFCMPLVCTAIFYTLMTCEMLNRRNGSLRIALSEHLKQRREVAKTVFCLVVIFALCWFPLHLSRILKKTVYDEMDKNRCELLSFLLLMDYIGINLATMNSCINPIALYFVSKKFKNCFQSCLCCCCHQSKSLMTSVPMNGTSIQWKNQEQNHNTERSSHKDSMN
Briefly: Displacement of [125 I] ET-1 from rat aortic smooth muscle A7r5 cells transfected with Endothelin A receptor. In kind it is cell-based.

Test [3] is described as follows: Ratio of IC50 of rat ETA receptor to that of porcine ETB receptor.

Each structure is given as a SMILES string.

`COc1cccc(Sc2c(NS(=O)(=O)c3ccc(C(C)(C)C)cc3)noc2CCCCC=O)c1`: the figures for the half-inhibitory concentration (IC50) in test [1] and in test [2] were 0.02 µM and 1.4 µM, respectively. In addition, in test [3], the Ratio is 70.

In the case of `Cc1onc(NS(=O)(=O)c2ccc(N)cc2)c1Cl`, the IC50 – broadly, the point on the concentration scale where inhibition reaches its midpoint – in test [2] was found to be 3.5 µM.

`COc1cccc(Sc2c(NS(=O)(=O)c3ccc(C(C)(C)C)cc3)noc2CCCC(C)=O)c1`: the concentration for half-maximal inhibition (IC50) in test [1] came out at 0.4 µM; in test [2], 1.3 µM. For the same molecule, the Ratio in test [3] came out at 3.3.

Regarding `COc1cccc(Sc2c(NS(=O)(=O)c3ccc(C(C)(C)C)cc3)noc2CCCO)c1`, the IC50 is 0.14 µM in test [1] and 0.32 µM in test [2]. Further, in test [3], the Ratio is 2.3.

With `COc1cccc(Sc2c(NS(=O)(=O)c3ccc(C(C)(C)C)cc3)noc2CCCC#N)c1`, the figures for the concentration for half-maximal inhibition (IC50) in test [1] and in test [2] were 0.52 µM and 1.3 µM, respectively. In addition, in test [3], the Ratio is 2.5.

For `COc1cccc(Sc2c(NS(=O)(=O)c3ccc(C(C)(C)C)cc3)noc2CCO)c1`, the 50% inhibitory concentration (IC50) stood at 0.43 µM in test [1] and 0.77 µM in test [2]. The Ratio in test [3] came to 1.8.

Consider `COc1cccc(Sc2c(NS(=O)(=O)c3ccc(C(C)(C)C)cc3)noc2CO)c1`, for which the half-maximal inhibitory concentration (IC50) in test [1] was found to be 0.56 µM; in test [2], 6.2 µM. Also, in test [3], the Ratio amounted to 11.

As for `COc1cccc(Sc2c(NS(=O)(=O)c3ccc(C(C)(C)C)cc3)noc2CCCC(=O)O)c1`, the IC50 in test [1] came to 0.5 µM. For the same molecule, the Ratio in test [3] was determined as 8.6.

Turning to `COc1cccc(Sc2c(NS(=O)(=O)c3ccc(C(C)(C)C)cc3)noc2CCCC(N)=O)c1`, the IC50 was 0.24 µM in test [1] and 6.3 µM in test [2]. Besides, the Ratio in test [3] was 26.

Turning to `Cc1onc(NS(=O)(=O)c2ccc(C(C)(C)C)cc2)c1I`, the IC50 in test [1] is 30 µM; in test [2], greater than 100 µM.

For the molecule `CCc1c(NS(=O)(=O)c2ccc(N)cc2)noc1C`, the half-inhibitory concentration (IC50) in test [2] was found to be 3.4 µM.

With `COc1cccc(Sc2c(NS(=O)(=O)c3ccc(C(C)(C)C)cc3)noc2CCC=O)c1`, the values for the IC50 in test [1] and in test [2] were 0.5 µM and 0.38 µM, respectively. In addition, the Ratio in test [3] was found to be 0.8.

On to `Cc1onc(NS(=O)(=O)c2ccc(N)cc2)c1Cc1ccccc1`, for which the 50% inhibitory concentration (IC50) in test [2] amounted to 71 µM.

Molecule `Cc1onc(NS(=O)(=O)c2ccc(C(C)(C)C)cc2)c1C` yielded a concentration for half-maximal inhibition (IC50) in test [2] of 28 µM.

As for `COC(=O)CCCc1onc(NS(=O)(=O)c2ccc(C(C)(C)C)cc2)c1Sc1cccc(OC)c1`, the IC50 in test [1] amounted to 0.31 µM; in test [2], 0.4 µM. Further, the Ratio in test [3] is 1.3.

Consider `COc1cccc(Sc2c(NS(=O)(=O)c3ccc(C(C)(C)C)cc3)noc2CCCC=O)c1`, for which the IC50 came out at 0.002 µM in test [1] and 1.7 µM in test [2]. Besides, the Ratio in test [3] was 850.

On to `Cc1onc(NS(=O)(=O)c2ccc(N)cc2)c1I`, for which the values for the IC50 in test [1] and in test [2] were greater than 1000 µM and 11 µM, respectively.

In test [2], `Cc1nsc(NS(=O)(=O)c2ccc(C(C)(C)C)cc2)c1C` gave a half-inhibitory concentration (IC50) greater than 500 µM.

Turning to `COc1cccc(Sc2c(NS(=O)(=O)c3ccc(C(C)(C)C)cc3)noc2CCC/C=N/O)c1`, the IC50 is 0.085 µM in test [1] and 1.5 µM in test [2]. Moreover, in test [3], the Ratio was 18.

Consider `Cc1snc(NS(=O)(=O)c2ccc(N)cc2)c1C`, for which, in test [2], the IC50 was found to be 28 µM.

`CSc1c(NS(=O)(=O)c2ccc(C(C)(C)C)cc2)noc1C`: the figures for the IC50 in test [1] and in test [2] were 35 µM and greater than 100 µM, respectively.

`COc1cccc(Sc2c(NS(=O)(=O)c3ccc(C(C)(C)C)cc3)noc2CCCCO)c1`: the IC50 in test [1] stood at 0.24 µM; in test [2], 0.63 µM. In addition, the Ratio in test [3] was 2.6.

As to `COc1cccc(Sc2c(NS(=O)(=O)c3ccc(C(C)(C)C)cc3)noc2C)c1`, the IC50 in test [1] worked out at 0.3 µM; in test [2], 0.53 µM. For the same molecule, the Ratio in test [3] was 1.8.

Regarding `CCc1onc(NS(=O)(=O)c2ccc(C(C)(C)C)cc2)c1Sc1cccc(OC)c1`, the IC50 in test [1] worked out at 2.8 µM; in test [2], 0.8 µM. Further, the Ratio in test [3] worked out at 0.3.
